Results on one molecule are retold here after ChEMBL document CHEMBL4229572, “VU6007477, a Novel M1 PAM Based on a Pyrrolo[2,3-b]pyridine Carboxamide Core Devoid of Cholinergic Adverse Events” (ACS Med Chem Lett, 2018).

Series [1] concerns the target T1, Muscarinic acetylcholine receptor M1 (Rattus norvegicus) (UniProt P08482).
T1 sequence (whole entry): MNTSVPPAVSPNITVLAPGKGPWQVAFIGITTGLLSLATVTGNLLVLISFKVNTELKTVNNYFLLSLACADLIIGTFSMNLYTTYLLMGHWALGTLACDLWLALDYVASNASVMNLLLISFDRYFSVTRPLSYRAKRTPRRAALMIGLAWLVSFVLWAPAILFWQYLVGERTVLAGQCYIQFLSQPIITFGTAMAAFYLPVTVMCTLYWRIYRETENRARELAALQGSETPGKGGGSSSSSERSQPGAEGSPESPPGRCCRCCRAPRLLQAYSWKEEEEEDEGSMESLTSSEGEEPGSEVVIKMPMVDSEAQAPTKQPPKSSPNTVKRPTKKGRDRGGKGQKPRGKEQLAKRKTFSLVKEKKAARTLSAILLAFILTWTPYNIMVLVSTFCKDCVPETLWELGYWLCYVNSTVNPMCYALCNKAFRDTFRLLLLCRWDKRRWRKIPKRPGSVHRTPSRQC
In words: (§1) Positive allosteric modulation of rat M1 receptor expressed in CHO cells assessed as increase in acetylcholine-induced calcium mobilization pretreated for 2.5 mins followed by acetylcholine addition and measured after 1 min by Fluo-4-AM dye based assay. Format: functional, cell-based. (Calcium assays in cells follow changes in intracellular calcium, usually with a dye or a luminescent sensor.)

The target of series [2] is T2, Muscarinic acetylcholine receptor M1 (Rattus norvegicus, UniProt P08482).
T2 sequence (P08482 whole entry): T1 sequence (whole entry)
The description is as §1. Format: functional, cell-based. The settings on record: read-out: EC50.

Series [3] deals with T3, Muscarinic acetylcholine receptor M5 (Homo sapiens, UniProt P08912).
T3 sequence (P08912 whole entry): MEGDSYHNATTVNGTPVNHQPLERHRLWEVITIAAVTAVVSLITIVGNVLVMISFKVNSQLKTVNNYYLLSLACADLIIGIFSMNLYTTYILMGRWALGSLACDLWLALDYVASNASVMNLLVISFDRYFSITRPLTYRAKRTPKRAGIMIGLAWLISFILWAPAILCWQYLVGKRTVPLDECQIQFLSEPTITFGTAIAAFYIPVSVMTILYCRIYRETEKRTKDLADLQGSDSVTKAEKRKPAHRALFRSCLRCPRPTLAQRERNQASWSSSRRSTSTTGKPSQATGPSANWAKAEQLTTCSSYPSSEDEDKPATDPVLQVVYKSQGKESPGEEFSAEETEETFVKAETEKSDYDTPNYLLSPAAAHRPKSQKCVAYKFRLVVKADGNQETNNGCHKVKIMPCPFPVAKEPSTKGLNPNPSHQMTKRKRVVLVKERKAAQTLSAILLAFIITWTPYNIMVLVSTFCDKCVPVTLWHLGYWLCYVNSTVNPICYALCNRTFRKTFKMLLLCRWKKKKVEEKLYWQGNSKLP
The experiment in a line: Positive allosteric modulation of human M5 receptor expressed in CHO cells assessed as increase in acetylcholine-induced calcium mobilization pretreated for 2.5 mins followed by acetylcholine addition and measured after 1 min by Fluo-4-AM dye based assay. The format is functional, cell-based.

The nature of series [4]: Total brain to plasma partition coefficient, Kp in cannulated Sprague-Dawley rat at 0.2 mg/kg, iv administered via jugular vein as cassette dose measured after 0.25 hrs by LC-MS/MS analysis. The format is ADME, organism-based. Particulars: Sprague-Dawley, brain and plasma.
A short description of series [5]: Drug level in C57BL/6J mouse brain at 100 mg/kg, ip measured after 1 hr. Format: ADME, organism-based. Particulars: read-out: Drug uptake.
The next series concerns Mus musculus. The experiment in a line: Cholinergic toxicity in C57BL/6J mouse assessed as induction of seizure activity at 100 mg/kg, ip measured within 30 mins. The format is organism-based. The settings on record: in vivo, 0.5 h.

One may read the pKb as the Kb on a negative log10 scale, so that one unit is a factor of ten. The term EC50 denotes the concentration giving half of the maximal effect. As usually defined, the Kp is the ratio of the level in a tissue or fluid to that in plasma or blood. As to `Cn1cc(-c2ccc(Cc3cc(C(=O)NC4CCOCC4)nc4c3ccn4C)cn2)cn1`, in series [1], the %max is 93% and the pKb is 4.82. The EC50 in series [2] is 230 nM. For the same molecule, the EC50 in series [3] is above 30 µM. For the same molecule, the Kp at 0.25 h in series [4] turned out to be 0.28. In series [5], the concentration at 1 h came to 7 µM. Further, the Activity result in the series with Mus musculus is given as “Non-Toxic”.
